Legend:
5-LO [1] = experiment: In vitro antigen (ovalbumin)-induced contraction of sensitized guinea pig tracheal strips, Schultz-Dale reaction (Inhibition of 5-LO); format: cell-based; conditions: Cavia porcellus, antigen (OA) 30 ng/ml, 30 min preincubation, with indomethacin 5 μM and pyrilamine 10 μM
Experimental: Male, Hartley strain guinea-pigs (200-250 g) were actively sensitized by three injections of ovalbumin (OA, 10 mg/kg). The OA was administered intraperitoneally on Days 1 and 3 and subcutaneously on Day 5. In vitro experiments were performed 21-25 days later.
On the day of the experiment, guinea pigs were killed by asphyxiation with CO2 and the tracheas removed, cleaned of surrounding connective tissue and cut into spiral strips. Each strip was divided in half for paired experiments. Tissues were placed in 10 ml jacketed tissue baths maintained at 37° C. and attached with cotton thread to Grass force-displacement transducers (FT03C). […] Tracheal strips were bathed in modified Krebs' solution of the following composition (millimolar) NaCl, 118.2;KCl, 4.6; CaCl2.2H2 O, 2.5; MgSO4.7H2 O, 1.2; NaHCO3,24.8; KH2 PO4, 1.0; and dextrose, 10.0. The buffer contained indomethacin (5 μM) which potentiated the contractions of the cysteinyl leukotriene (LT) by removing the influence of cyclooxygenase products. The tissue baths were aerated with 95% O2 :5% CO2. Tracheal strips were placed under a resting tension of 2 g, and the tissues were allowed a minimal stabilization period of 60 minutes before undergoing experimentation. Bath fluid was changed at 15 minute intervals during the stabilization period.
Cumulative concentration-response curves were obtained from tracheal strips by increasing the agonist concentration in the organ bath by half-log increments while the previous concentration remained in contact with the tissues (van Rossum, Arch. Int. Pharmacodyn. Ther., 143, 299-330 (1963)). Agonist concentration was increased after reaching the plateau of the contraction elicited by the preceeding concentration. One concentration-response curve was obtained from each tissue. To minimize variability between tissues, contractile responses were expressed as a percentage of the maximal response obtained with carbachol (10 μM), added to the bath at the end of the concentration-response curve. Initially, tissues were challenged with carbachol (10 μM) following the 60 minute stabilization period to insure tissue viability. After recording the maximal response to the initial carbachol challenge, the tissues were washed and reequilibrated for 60 minutes before starting the experimental protocol.
To evaluate the effects of novel 5-lipoxygenase inhibitors in the Schultz-Dale reaction, each compound was incubated with the tissues 30 minutes before starting the curves. Vehicle (DMSO) was given to the paired control tissue. Pyrilamine (10 μM) was added to all baths at this time to block the actions of released histamine. Responses obtained at the antigen concentration of 30 ng/ml were recorded in the absence and presence of drug and percent inhibition was calculated for each pair of tissues. IC50 valves were determined by linear regression.

5-LO [2] = experiment: In vivo ovalbumin-induced increase in intratracheal pressure in passively sensitized guinea pigs (Inhibition of 5-LO); set-up: species or system guinea pig; conditions: OA-induced increase in tracheal pressure; for Inhibition of 5-LO In Vivo Percent Inhibition (dose of 10 mg/kg): dose of 10 mg/kg (footnote a), po, 2 hr.
Experimental: Male Hartley guinea pigs (350-500 g) were passively sensitized against ovalbumin by i.p. administration of 0.3 ml of antiserum 2 days preceeding the experiment. Hyperimmune serum was prepared from actively sensitizing male guinea pigs conditioned with 2 mg of ovalbumin in 50% Complete Freund's Adjuvant i.p. on days 1 and 5. On day 21, the animals were bled and the serum collected and stored at -20° C. On the day of the experiment the passively sensitized guinea pigs were anesthetized with 35 to 40 mg/kg of pentobarbital sodium given i.p. The right jugular vein was cannulated with Tygon microbore tubing (o.d.=03) connected to a syringe for administration of selected drugs. Blood pressure was measured with a Statham pressure transducer connected to a Tygon catheter placed in the left carotid artery. The trachea was cannulated and each animal was ventilated with room air by means of a Harvard rodent respirator set to deliver a tidal volume of 1 ml/100 g body weight with a rate of 60 breaths/minute. Succinylcholine (5 mg/kg) was given i.v. to suppress spontaneous respiration. Intratracheal pressure, an index of total pulmonary resistance, was measured with a Statham pressure transducer connected to a T-tube on the tracheal cannula. […] Body temperature was maintained within normal limits by means of a Deltaphase isothermal pad. Prior to surgery, test compound or vehicle (PEG 400) was administered to each guinea pig by oral gavage and OA challenge was at designated times following oral dosing. The animals were pretreated i.v. with pyrilamine (5 mg/kg), propranolol (1 mg/kg) and indomethacin (10 mg/kg) 5 minutes prior to the OA challenge. OA-induced increase in tracheal pressure was expressed as a percentage of the maximal pressure obtained by clamping the trachea with a hemistat. To determine the effect of each drug, a % inhibition value was calculated from the vehicle and drug treated animals at each concentration tested.

SMILES | IC50 (5-LO [1]) [nM] | Inhibition of 5-LO In Vivo Percent Inhibition at 30 mg/kg, po, 2 hr. (5-LO [2]) [%] | Inhibition of 5-LO In Vivo Percent Inhibition (dose of 10 mg/kg) (5-LO [2]) [%]
NC(=O)N(O)C/C=C/c1c(F)cccc1Sc1ccc(F)cc1 [Example 1, N-hydroxy-N-[3-[2-(4-fluorophenylthio)-6-fluorophenyl]-prop-2-enyl]urea] | 50 | 97 | 
NC(=O)N(O)C/C=C/c1ccccc1Sc1ccc(F)cc1 [Example 2, N-hydroxy-N-[3-[2-(4-fluorphenylthio)phenyl]prop-2-enyl]urea] | 100 | 96 | 
NC(=O)N(O)C/C=C/c1ccc(F)cc1Sc1ccc(F)cc1 [Example 3, N-hydroxy-N-[3-[2-(4-fluorophenylthio)-4-fluorophenyl]prop-2-enyl]urea] | 190 |  | 43
NC(=O)N(O)C/C=C/c1cc(F)ccc1Sc1ccc(F)cc1 [Example 4, N-hydroxy-N-[3-[2-(4-fluorophenylthio)-5-fluorophenyl]prop-2-enyl]urea] | 230 | 52 | 
NC(=O)N(O)C/C=C/c1ccccc1Sc1ccc(Cl)cc1 [Example 5, N-hydroxy-N-[3-[2-(4-chlorophenylthio)phenyl]prop-2-enyl]urea] | 140 | 95 | 
NC(=O)N(O)C/C=C/c1cccc(F)c1Sc1ccc(F)cc1 [Example 6, N-hydroxy-N-[3-[2-(4-fluorophenylthio)-3-fluorophenyl]prop-2-enyl]urea] | 130 | 81 | 
NC(=O)N(O)C/C=C/c1cccc(F)c1Sc1ccc(Cl)cc1 [Example 7, N-hydroxy-N-[3-[2-(4-chlorophenylthio)-3-fluorophenyl]prop-2-enyl]urea] | 90 |  | 77
NC(=O)N(O)C/C=C/c1c(F)cccc1Sc1ccc(Cl)cc1 [Example 8] | 130 | 46 | 
